Measured values reported in paper PMC10254530, “Design and Synthesis of Brefeldin A-Isothiocyanate Derivatives with Selectivity and Their Potential for Cervical Cancer Therapy” (Molecules, 2023).
Structures can show the parent of a compound that is named as a salt.

Key:
[1] = tested on: L-02 cells; experiment: CCK-8 cytotoxicity assay, normal liver L-02; type: cell-based; settings: Homo sapiens, L02; CCK-8, 48 h, normal liver cells, mean ± SD of three experiments; read-out: IC50 L-02
Method: (§1) All cells were cultured in Dulbecco’s Modified Eagle’s Medium (DMEM) (Burlington, MA, USA) or Roswell Park Memorial Institute (RPMI)-1640 medium containing 10% fetal bovine serum and 1% penicillin/streptomycin in an incubator at 37 °C and 5% CO2. […] Cell suspension with a concentration of 8 × 10^4 cells/mL was prepared after cell counting. 100 μL cell suspension was added to each well of the 96-well plate and then placed in an incubator overnight. Most of the derivatives were configured into 80 mM, 20 mM or 4 mM stock solution in DMSO, and the stock solution concentration of BFA and paclitaxel was 0.4 mM. […] The medium in each well was discarded, and 100 μL of gradient diluted derivative solution was added (the control group was added with serum-free medium).

[2] = tested on: HepG2 cells; experiment: CCK-8 antiproliferative assay, HepG2; type: cell-based; settings: Homo sapiens, HepG2; CCK-8, 48 h, mean ± SD of three experiments; read-out: IC50 HepG2
Method: as §1

[3] = tested on: HeLa cells; experiment: CCK-8 antiproliferative assay, HeLa; type: cell-based, human; settings: for IC50: Homo sapiens, HeLa, CCK-8, 48 h, mean ± SD of three experiments, read-out: IC50 HeLa; for SIHeLa, selectivity index between L-02 and HeLa: SI = IC50(L-02)/IC50(HeLa)
Method: as §1

[4] = tested on: A549 cells; experiment: CCK-8 antiproliferative assay, A549; type: cell-based; settings: Homo sapiens, A549; CCK-8, 48 h, mean ± SD of three experiments; read-out: IC50 A549
Method: as §1

[5] = tested on: A375 cells; experiment: CCK-8 antiproliferative assay, A375; type: cell-based; settings: Homo sapiens, A-375; CCK-8, 48 h, mean ± SD of three experiments; read-out: IC50 A375
Method: as §1

[6] = tested on: MDA-MB-231 cells; experiment: CCK-8 antiproliferative assay, MDA-MB-231; type: cell-based; settings: Homo sapiens, MDA-MB-231; CCK-8, 48 h, mean ± SD of three experiments; read-out: IC50 MDA-MB-231
Method: as §1

Compound	IC50 [1] [µM]	IC50 [2] [µM]	IC50 [3] [µM]	SIHeLa, selectivity index between L-02 and HeLa [3]	IC50 [4] [µM]	IC50 [5] [µM]	IC50 [6] [µM]
C[C@H]1CCC/C=C/[C@@H]2C[C@H](OC(=O)c3ccc(N=C=S)cc3)C[C@H]2[C@H](O)/C=C/C(=O)O1 [Compound 7, (1R,2E,6S,10E,11aS,13S,14aR)-1-Hydroxy-6-methyl-4-oxo-1,6,7,8,9,11a,12,13,14,14a-decahydro-4H-cyclopenta[f][1]oxacyclotridecin-13-yl 4-isothiocyanatobenzoate]	8.6 ± 0.71	> 40	3.02 ± 0.23	2.85	20.4 ± 1.31	5.78 ± 0.1	17 ± 1.21
CC(=O)O[C@H]1C(=O)[C@@]2(C)[C@H]([C@H](OC(=O)c3ccccc3)[C@]3(O)C[C@H](OC(=O)[C@H](O)[C@@H](NC(=O)c4ccccc4)c4ccccc4)C(C)=C1C3(C)C)[C@]1(OC(C)=O)CO[C@@H]1C[C@@H]2O [paclitaxel, reference compound]	0.13	0.55 ± 0.03	0.034 ± 0.002	3.82	0.014 ± 0.002	0.059 ± 0.001	0.33 ± 0.03
C[C@H]1CCC/C=C/[C@@H]2C[C@H](O)C[C@H]2[C@H](OC(=O)/C=C\C(=O)OCCOCCOC(=O)c2ccc(N=C=S)cc2)/C=C/C(=O)O1 [Compound 9j, (1R,2E,6S,10E,11aS,13S,14aR)-13-Hydroxy-6-methyl-4-oxo-1,6,7,8,9,11a,12,13,14,14a-decahydro-4H-cyclopenta[f][1]oxacyclotridecin-1-yl (2-(2-((4-isothiocyanatobenzoyl)oxy)ethoxy)ethyl) maleate]	10.8 ± 0.57	3.69 ± 0.14	1.71 ± 0.02	6.29	4.61 ± 0.12	1.5 ± 0.05	2.27 ± 0.03
C[C@H]1CCC/C=C/[C@@H]2C[C@H](OC(=O)/C=C\C(=O)OCCOC(=O)c3ccc(N=C=S)cc3)C[C@H]2[C@H](OC(=O)/C=C\C(=O)OCCOC(=O)c2ccc(N=C=S)cc2)/C=C/C(=O)O1 [Compound 8g, Bis(2-((4-isothiocyanatobenzoyl)oxy)ethyl) O,O’-((1R,2E,6S,10E,11aS,13S,14aR)-6-methyl-4-oxo-1,6,7,8,9,11a,12,13,14,14a-decahydro-4H-cyclopenta[f][1]oxacyclotridecine-1,13-diyl) dimaleate]	> 80	> 40	9.74 ± 0.37	>8.21	> 40	> 40	> 40
C[C@H]1CCC/C=C/[C@@H]2C[C@H](OC(=O)CCC(=O)OCC#CCOC(=O)c3ccc(N=C=S)cc3)C[C@H]2[C@H](OC(=O)CCC(=O)OCC#CCOC(=O)c2ccc(N=C=S)cc2)/C=C/C(=O)O1 [Compound 8c, Bis(4-((4-isothiocyanatobenzoyl)oxy)but-2-yn-1-yl) O,O’-((1R,2E,6S,10E,11aS,13S,14aR)-6-methyl-4-oxo-1,6,7,8,9,11a,12,13,14,14a-decahydro-4H-cyclopenta[f][1]oxacyclotridecine-1,13-diyl) disuccinate]	> 80	> 40	39 ± 1.43	>2.05	> 40	> 40	> 40
C[C@H]1CCC/C=C/[C@@H]2C[C@H](O)C[C@H]2[C@H](O)/C=C/C(=O)O1 [BFA, Brefeldin A]	0.094 ± 0.004	0.12 ± 0.01	0.044 ± 0.004	2.14	0.056 ± 0.002	0.039 ± 0.001	0.054 ± 0.001
C[C@H]1CCC/C=C/[C@@H]2C[C@H](O)C[C@H]2[C@H](OC(=O)CCC(=O)OCCOCCOC(=O)c2ccc(N=C=S)cc2)/C=C/C(=O)O1 [Compound 9d, (1R,2E,6S,10E,11aS,13S,14aR)-13-Hydroxy-6-methyl-4-oxo-1,6,7,8,9,11a,12,13,14,14a-decahydro-4H-cyclopenta[f][1]oxacyclotridecin-1-yl (2-(2-((4-isothiocyanatobenzoyl)oxy)ethoxy)ethyl) succinate]	9.18 ± 0.13	2.34 ± 0.31	0.99 ± 0.02	–	2.85 ± 0.1	2.93 ± 0.12	2.05 ± 0.27
C[C@H]1CCC/C=C/[C@@H]2C[C@H](O)C[C@H]2[C@H](OC(=O)CCC(=O)OCC#CCOC(=O)c2ccc(N=C=S)cc2)/C=C/C(=O)O1 [Compound 9c, (1R,2E,6S,10E,11aS,13S,14aR)-13-Hydroxy-6-methyl-4-oxo-1,6,7,8,9,11a,12,13,14,14a-decahydro-4H-cyclopenta[f][1]oxacyclotridecin-1-yl (4-((4-isothiocyanatobenzoyl)oxy)but-2-yn-1-yl) succinate]	17.4 ± 0.44	8.84 ± 0.28	3.63 ± 0.15	4.79	13.19 ± 0.03	10.4 ± 0.16	9.77 ± 0.22
C[C@H]1CCC/C=C/[C@@H]2C[C@H](O)C[C@H]2[C@H](OC(=O)CCC(=O)OCCCCCCOC(=O)c2ccc(N=C=S)cc2)/C=C/C(=O)O1 [Compound 9e, (1R,2E,6S,10E,11aS,13S,14aR)-13-Hydroxy-6-methyl-4-oxo-1,6,7,8,9,11a,12,13,14,14a-decahydro-4H-cyclopenta[f][1]oxacyclotridecin-1-yl (6-((4-isothiocyanatobenzoyl)oxy)hexyl) succinate]	7.87 ± 0.33	5.77 ± 0.07	0.81 ± 0.03	–	2.59 ± 0.13	3.87 ± 0.35	1.56 ± 0.05
C[C@H]1CCC/C=C/[C@@H]2C[C@H](OC(=O)/C=C\C(=O)OCCCCOC(=O)c3ccc(N=C=S)cc3)C[C@H]2[C@H](OC(=O)/C=C\C(=O)OCCCCOC(=O)c2ccc(N=C=S)cc2)/C=C/C(=O)O1 [Compound 8h, Bis(4-((4-isothiocyanatobenzoyl)oxy)butyl) O,O’-((1R,2E,6S,10E,11aS,13S,14aR)-6-methyl-4-oxo-1,6,7,8,9,11a,12,13,14,14a-decahydro-4H-cyclopenta[f][1]oxacyclotridecine-1,13-diyl) dimaleate]	> 80	> 40	8.48 ± 0.72	–	> 40	> 40	> 40
C[C@H]1CCC/C=C/[C@@H]2C[C@H](OC(=O)CCC(=O)OCCCCCCOC(=O)c3ccc(N=C=S)cc3)C[C@H]2[C@H](OC(=O)CCC(=O)OCCCCCCOC(=O)c2ccc(N=C=S)cc2)/C=C/C(=O)O1 [Compound 8e, Bis(6-((4-isothiocyanatobenzoyl)oxy)hexyl) O,O’-((1R,2E,6S,10E,11aS,13S,14aR)-6-methyl-4-oxo-1,6,7,8,9,11a,12,13,14,14a-decahydro-4H-cyclopenta[f][1]oxacyclotridecine-1,13-diyl) disuccinate]	> 80	> 40	26.8 ± 0.7	>2.99	> 40	> 40	> 40
C[C@H]1CCC/C=C/[C@@H]2C[C@H](OC(=O)/C=C\C(=O)OCCOCCOC(=O)c3ccc(N=C=S)cc3)C[C@H]2[C@H](OC(=O)/C=C\C(=O)OCCOCCOC(=O)c2ccc(N=C=S)cc2)/C=C/C(=O)O1 [Compound 8j, Bis(2-(2-((4-isothiocyanatobenzoyl)oxy)ethoxy)ethyl) O,O’-((1R,2E,6S,10E,11aS,13S,14aR)-6-methyl-4-oxo-1,6,7,8,9,11a,12,13,14,14a-decahydro-4H-cyclopenta[f][1]oxacyclotridecine-1,13-diyl) dimaleate]	21.27 ± 0.16	> 40	30.6 ± 2.12	0.70	23.79 ± 0.02	> 40	> 40
C[C@H]1CCC/C=C/[C@@H]2C[C@H](OC(=O)CCC(=O)OCCOCCOC(=O)c3ccc(N=C=S)cc3)C[C@H]2[C@H](OC(=O)CCC(=O)OCCOCCOC(=O)c2ccc(N=C=S)cc2)/C=C/C(=O)O1 [Compound 8d, Bis(2-(2-((4-isothiocyanatobenzoyl)oxy)ethoxy)ethyl) O,O’-((1R,2E,6S,10E,11aS,13S,14aR)-6-methyl-4-oxo-1,6,7,8,9,11a,12,13,14,14a-decahydro-4H-cyclopenta[f][1]oxacyclotridecine-1,13-diyl) disuccinate]	> 80	> 40	7.67 ± 0.33	–	> 40	22.8 ± 1.58	> 40
C[C@H]1CCC/C=C/[C@@H]2C[C@H](OC(=O)CCC(=O)Oc3ccc(OC(=O)c4ccc(N=C=S)cc4)cc3)C[C@H]2[C@H](OC(=O)CCC(=O)Oc2ccc(OC(=O)c3ccc(N=C=S)cc3)cc2)/C=C/C(=O)O1 [Compound 8f, Bis(4-((4-isothiocyanatobenzoyl)oxy)phenyl) O,O’-((1R,2E,6S,10E,11aS,13S,14aR)-6-methyl-4-oxo-1,6,7,8,9,11a,12,13,14,14a-decahydro-4H-cyclopenta[f][1]oxacyclotridecine-1,13-diyl) disuccinate]	> 80	> 40	> 40	–	> 40	> 40	> 40
